Test [1] concerns IL-6-induced STAT3 transcriptional activation. The test is described as follows: IL-6 reactive STAT3 reporter gene (luciferase) assay in Hep3B cells. The test is classed as cell-based. As to conditions: for Inhibition (%) of STAT3 luciferase activity / IC50: IL-6 10 ng/ml; for IC50: read-out: IC50, inhibition of IL-6-induced STAT3 luciferase activity; for Effect on STAT3 luciferase activity (in words): IL-6. The method, then: pStat3-Luc and pcDNA3.1(+) (Clontech laboratories, Palo Alto, Calif.) were transfected into Hep3B cells (ATCC HB-8064) using lipofectamine plus (Invitrogen, Carlsbad, Calif., USA) at the same time. 2 days later, the cells were treated with hygromycin (100 μg/ml) to obtain clones stably expressing luciferase. Luciferase analysis was performed to examine whether luciferase is stably expressed in the clones.
The transfected cells in the clones obtained in Example 5-1 were cultured in DMEM (GIBCO 119950965) under serum starvation, and the samples were treated for 1 hour as follows. 10 ng/ml IL-6 (R&D system, USA) was added thereto, followed by cultivation for 12 hours.
The cultured cells were washed with PBS and 50 μl of lysis buffer (luciferase assay system, promega, USA) was added thereto, followed by stirring for 20 minutes. 30-100 μl of luciferase substrate (luciferase assay system, promega, USA) was added to measure […] using a luminometer (EG&G BERTHOLD, USA) within 5 minutes (Tables 5 and 6).
In detail, the inhibitory effects of oleanolic acid or oleanolic acid acetate on STAT3 luciferase activity was measured in the same manner as in Example 5-2, except that oleanolic acid or oleanolic acid acetate was treated as a sample in an amount of 0.1, 1, 3, 6 or 10 μM, respectively and compared with each other (FIG. 14).
(In general: A reporter such as luciferase makes a cellular process visible.)

The subject of test [2] is STAT3 phosphorylation. In words: IL-6-induced STAT3 phosphorylation in Hep3B cells (Western blot). In kind it is cell-based. As to conditions: IL-6 20 ng/ml 20 minutes, FIGS. 8a, 8b. The method, then: Hep3B cells were seeded in a 6-well plate at a density of 5×10^5 per well, and cultured to a confluency of 80% in a culture plate. Then, the medium was replaced with serum-free medium and further cultured for 12 hours, and the samples were treated for 60 minutes as follows.
Next, 20 ng/ml of IL-6 was treated, and reacted for 20 minutes, and 40 μl of lysis buffer (pH 8, 20 mM Tris-HCl, 137 mM NaCl, 10% glycerol, 1% Triton X-100, 1 mM Na3VO4, 2 mM EDTA, 1 mM APMSF, 20 μM leupeptin, 20 μg/ml aprotonin; Sigma, USA) was used for cell lysis. Centrifugation (13000 g, 15 minutes) was performed to obtain supernatants containing proteins. Protein concentrations were quantified using a DC protein assay kit (Bio-Rad, USA), and proteins were loaded in a 4˜12% SDS polyacrylamide gel (SDS-PAGE) and electrophoresis was performed at 175 mA for 2 hours. After electrophoresis, the proteins of the gel were transferred onto a PVDF membrane (Westran S, pore size […]; Whatman, USA) at 35 V for 90 minutes. The transferred membrane was blocked with Tris-buffer (T-TBS; 50 mM Tri-HCl, pH 7.6, 150 mM NaCl, 0.2% Tween-20, 5% skim milk; Sigma, USA) at room temperature for 1 hour, and washed with T-TBS five times. The membrane was treated with polyclonal antibody of phospho-STAT3 (1:1000 dilution) as a primary antibody at 4° C. 12 hours. […]
In general terms: A western blot detects proteins with antibodies after separation by electrophoresis.

Test [3] has as its system osteoclast differentiation from bone marrow macrophages. In words: RNAKL-induced osteoclast differentiation of bone marrow macrophages (TRAP staining). The test is classed as cell-based, mouse. As to conditions: for Osteoclast differentiation (number and size of TRAP-positive osteoclasts): M-CSF 30 ng/ml, RNAKL 50 ng/ml, 4 days. The method, then:
Femurs and tibia were removed from 5-week-old mice, and the bone cavity was washed using a 1 cc syringe to obtain bone marrow cells. The isolated bone marrow cells were cultured in α-MEM (α-minimum essential medium) containing 10% FBS, antibiotic, M-CSF (30 ng/ml) for 3 days. 3 days later, the adherent cells were used as bone marrow macrophage (BMM). The bone marrow macrophages were cultured by addition of M-CSF (30 ng/ml) and an osteoclast differentiation factor RNAKL (Receptor activator of nuclear factor kappa-B ligand) (50 ng/ml) and treated with the adzuki bean extract and oleanolic acid acetate at each concentration. 4 days later, the cultured cells were stained with a TRAP solution (Sigma Aldrich, USA), and red stained cells were determined as differentiated osteoclasts.

Test [4] relates to poly(I:C)-induced NFkB/AP-1 dependent SEAP activity (TLR3 signaling pathway). In words: Poly(I:C)-induced NFkB/AP-1-dependent SEAP activity in THP1-Blue-CD14 cells. The test is classed as cell-based, Human. As to conditions: for Effect on poly(I:C)-induced SEAP activity (in words): THP-1-blue cells.
Method: (§1) THP1-Blue-CD14 cells were seeded at a density of 2×10^5 cells/100 μl in a 96-well plate, and cultured at 37° C. for 3 hours.
The subject of test [5] is poly(I)-induced NFkB/AP-1 dependent SEAP activity (TLR7 signaling pathway). The test is described as follows: Poly(I)-induced NFkB/AP-1-dependent SEAP activity in THP1-Blue-CD14 cells. The test is classed as cell-based, Human. As to conditions: for Effect on poly(I)-induced SEAP activity (in words): THP-1-blue cells.
Method: as §1
Where [6] appears, read: Homo sapiens, read-out: Inhibition (%) of poly(I:C)-induced SEAP activity.
Setting [7] is: Homo sapiens, read-out: Inhibition (%) of poly(I)-induced SEAP activity.
Setting [8] is: Homo sapiens, sample 30 μM, poly(I:C) 100 μg/ml, read-out: Inhibition (%) of poly(I:C)-induced SEAP activity.
[9] abbreviates: Homo sapiens, sample 60 μM, poly(I:C) 100 μg/ml, read-out: Inhibition (%) of poly(I:C)-induced SEAP activity.
[10] abbreviates: Homo sapiens, sample 30 μM, poly(I) 50 μg/ml, read-out: Inhibition (%) of poly(I)-induced SEAP activity.
The mark [11] stands for this setting: Homo sapiens, sample 60 μM, poly(I) 50 μg/ml, read-out: Inhibition (%) of poly(I)-induced SEAP activity.

Several values for one entry are separate records, joined by “and”; a condition that tells them apart may be missing. Identical values can stand only once. Like-named read-outs stand apart in the source and are kept apart here.

For the compound `CC1(C)CC[C@]2(C(=O)O)CC[C@]3(C)C(=CC[C@@H]4[C@@]5(C)CC[C@H](O)C(C)(C)[C@@H]5CC[C@]43C)[C@@H]2C1` [oleanolic acid], the “Inhibition (%) of STAT3 luciferase activity” value in test [1] (sample 10 μM) is reported as “approximately 14%”.

Regarding `CC(=O)O[C@H]1CC[C@@]2(C)C(CC[C@]3(C)[C@@H]2CC=C2[C@H]4CC(C)(C)CC[C@]4(C(=O)O)CC[C@]23C)C1(C)C` (stereo partly drawn) [Oleanolic acid acetate, 4aS,6aR,6aS,6bR,8aR,10S,12aR,14bS)-10-hydroxy-2,2,6a,6b,9,9,12a-heptamethyl-1,3,4,5,6,6a,7,8,8a,10,11,12,13,14b-tetradecahydropicene-4a-carboxylic acid acetate], the IC50 was < 1000 nM in test [1] (Homo sapiens) and 900 nM in test [1]. Moreover, the “Effect on STAT3 luciferase activity (in words)” value in test [1] is listed as “inhibited STAT3 luciferase activity in a concentration dependent manner”. For the same compound, the “Inhibition (%) of STAT3 luciferase activity” value in test [1] (sample 1 μM) is 51.2%; in test [1] (sample 3 μM), 84.3%; in test [1] (sample 6 μM), 95.1%; in test [1] (sample 10 μM) it was 97.2%; in test [1] (sample 30 μM) it was 100%. In addition, the “IL-6-induced STAT3 phosphorylation” value in test [2] is recorded as “showed the inhibitory effects”. Also, the Osteoclast differentiation entry in test [3] (10 μM) is listed as “remarkable effect”. Also, the entries for the “Osteoclast differentiation (number and size of TRAP-positive osteoclasts)” value in test [3] and in test [3] (listed as compound of Chemical Formula 1) were “remarkably inhibited” and “reduced in a concentration-dependent manner”, respectively. Further, the inhibition at 10 µM in test [4] (setting [6]) is < 0%; in test [5] (setting [7]), 2.02%. The inhibition at 30 µM stood at 9.28% in test [4] (setting [6]) and 43.9% in test [5] (setting [7]). Besides, the inhibition at 60 µM in test [4] (setting [6]) is 47.2%; in test [5] (setting [7]) it was 74.6%. Besides, the inhibition at 100 µM in test [4] (setting [6]) stood at 64.4%; in test [5] (setting [7]) it was 83%. For the same compound, the “Effect on poly(I:C)-induced SEAP activity (in words)” value in test [4] was “significantly inhibited”. The “Effect on poly(I)-induced SEAP activity (in words)” value in test [5] is reported as “significantly inhibited”.

Consider `CC[C@H](/C=C/[C@@H](C)[C@H]1CC[C@H]2[C@@H]3CC=C4C[C@@H](O)CC[C@]4(C)[C@H]3CC[C@]12C)C(C)C` [Stigmasterol, (3S,8S,9S,10R,13R,14S,17R)-17-[(E,2R,5S)-5-ethyl-6-methylhept-3-en-2-yl]-10,13-dimethyl-2,3,4,7,8,9,11,12,14,15,16,17-dodecahydro-1H-cyclopenta[a]phenanthren-3-ol], for which, in test [1] (Homo sapiens), the 50% inhibitory concentration (IC50) stood at 90000 nM. Moreover, the “Effect on STAT3 luciferase activity (in words)” value in test [1] was “inhibited STAT3 luciferase activity in a concentration dependent manner”. For the same compound, the “Inhibition (%) of STAT3 luciferase activity” value in test [1] (sample 60 μM) is listed as 29.4%. Further, the “Inhibition (%) of STAT3 luciferase activity” value in test [1] (sample 100 μM) came to 58.4%. In test [4] (setting [6]), the inhibition at 30 µM came out at 8.71%, the inhibition at 60 µM was determined as 4.92% and the inhibition at 100 µM was < 0%. In addition, the “Effect on poly(I:C)-induced SEAP activity (in words)” value in test [4] is recorded as “did not show the inhibitory activity”. In test [5] (setting [7]), the inhibition at 30 µM was < 0%, the inhibition at 60 µM came to 2.63% and the inhibition at 100 µM was found to be 1.42%. For the same compound, the “Effect on poly(I)-induced SEAP activity (in words)” value in test [5] was “did not show the inhibitory activity”.

Turning to `OC[C@H]1O[C@@H](Oc2cc(O)c3c(c2)O[C@H](c2ccc(O)c(O)c2)[C@@H](O)C3)[C@H](O)[C@@H](O)[C@@H]1O` [Catechin-7-glucopyranoside, catechin-7-glucopyranoside, reference compound], the “Effect on STAT3 luciferase activity (in words)” value in test [1] is “did not show the inhibitory effect”. The “Inhibition (%) of STAT3 luciferase activity” value in test [1] (sample 30 μM) was 8.3%; in test [1] (sample 60 μM), 15.9%; in test [1] (sample 100 μM), 0.4%. The “Effect on poly(I:C)-induced SEAP activity (in words)” value in test [4] is reported as “did not affect”. The “Inhibition (%) of poly(I:C)-induced SEAP activity” value in test [4] (sample 30 μM, poly(I:C) 100 μg/ml) is reported as 13.19%; in test [4] (sample 60 μM, poly(I:C) 100 μg/ml) it was 11.16%. Besides, the “Effect on poly(I)-induced SEAP activity (in words)” value in test [5] is “did not affect”.

Take `O=c1cc(-c2ccc(O)c(O)c2)oc2cc(O)cc(O)c12` [Luteolin, reference compound]: the inhibition at 30 µM in test [4] (setting [8]) was 47.7%; in test [5] (setting [10]), 79.2%. Besides, the inhibition at 60 µM turned out to be 67.3% in test [4] (setting [9]) and 96.3% in test [5] (setting [11]).

Regarding `C[C@@H]1O[C@@H](OC[C@H]2O[C@@H](Oc3c(-c4ccc(O)c(O)c4)oc4cc(O)cc(O)c4c3=O)[C@H](O)[C@@H](O)[C@@H]2O)[C@H](O)[C@H](O)[C@H]1O` [Rutin, rutin, reference compound], the inhibition at 30 µM in test [4] (setting [8]) and in test [5] (setting [10]) was < 0% each time. Besides, the inhibition at 60 µM in test [4] (setting [9]) and in test [5] (setting [11]) was < 0% each time.

Take `O=c1c(-c2ccc(O)cc2)coc2cc(O)cc(O)c12` [Genistein, reference compound]: the “Inhibition (%) of STAT3 luciferase activity” value in test [1] (sample 100 μM) is 95.2% and 95.1% and 95.4%.

As usually defined, the IC50 is the concentration at which inhibition is half-maximal. As a reminder, the inhibition is the drop in the measured response relative to a control, in per cent.

Source of the values: patent US20140179780A1, “PHARMACEUTICAL COMPOSITION CONTAINING OLEANOLIC ACID ACETATE AS AN ACTIVE INGREDIENT FOR PREVENTING OR TREATING TLR- OR IL-6-MEDIATED DISEASES” (Korea Research Institute of Bioscience and Biotechnology, priority 2011, published 2014).
